The supplement of paper PMC10307832

Legend:
Test in all cases: relative viability (nuclei count vs DMSO), 5 days (fraction); higher = more cells survive
[1] = compound: C1=CC=C2C(=C1)N=C(S2)C(C#N)C3=NC(=NC=C3)NCCC4=CN=CC=C4 + O=C(c1cc(Cc2n[nH]c(=O)c3ccccc23)ccc1F)N1CCN(C(=O)C2CC2)CC1 [Olaparib] (partner 8 µM)
In short: (§1)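 Medians of duplicate plates are given as relative viability. That measure is the nuclei count in treated wells divided by the count in vehicle wells. Counts were taken on 4× images of lung cancer cell lines in 1536-well plates, 5 days after pin-tool dosing the day after seeding with one drug alone or a fixed anchor-drug dose plus five library-drug doses (not always all listed) in √10 steps.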

NVP-TAE684 + Vorinostat = compound: COc1cc(N2CCC(N3CCN(C)CC3)CC2)ccc1Nc1ncc(Cl)c(Nc2ccccc2S(=O)(=O)C(C)C)n1 [NVP-TAE684] + O=C(CCCCCCC(=O)Nc1ccccc1)NO [Vorinostat] (partner 1 µM)
In short: as §1

Vandetanib + OSI-027 = compound: COc1cc2/c(=N/c3ccc(Br)cc3F)nc[nH]c2cc1OCC1CCN(C)CC1 [Vandetanib] + COc1cccc2cc(-c3nc([C@H]4CC[C@H](C(=O)O)CC4)n4ncnc(N)c34)[nH]c12 [OSI-027] (partner 0.5 µM)
In short: as §1

Vandetanib + Vorinostat = compound: COc1cc2/c(=N/c3ccc(Br)cc3F)nc[nH]c2cc1OCC1CCN(C)CC1 [Vandetanib] + O=C(CCCCCCC(=O)Nc1ccccc1)NO [Vorinostat] (partner 1 µM)
In short: as §1

| Cell Line | relative viability ([1]; first compound 0.005 µM) | relative viability ([1]; first compound 0.01581 µM) | relative viability ([1]; first compound 0.05 µM) | relative viability ([1]; first compound 0.1581 µM) | relative viability ([1]; first compound 0.5 µM) | relative viability (NVP-TAE684 + Vorinostat; first compound 0.2 µM) | relative viability (NVP-TAE684 + Vorinostat; first compound 0.6325 µM) | relative viability (NVP-TAE684 + Vorinostat; first compound 2 µM) | relative viability (Vandetanib + OSI-027; first compound 0.02 µM) | relative viability (Vandetanib + OSI-027; first compound 0.06325 µM) | relative viability (Vandetanib + OSI-027; first compound 0.2 µM) | relative viability (Vandetanib + OSI-027; first compound 0.6325 µM) | relative viability (Vandetanib + OSI-027; first compound 2 µM) | relative viability (Vandetanib + Vorinostat; first compound 0.02 µM) | relative viability (Vandetanib + Vorinostat; first compound 0.06325 µM) | relative viability (Vandetanib + Vorinostat; first compound 0.2 µM) | relative viability (Vandetanib + Vorinostat; first compound 0.6325 µM) | relative viability (Vandetanib + Vorinostat; first compound 2 µM) |
| --- | --- | --- | --- | --- | --- | --- | --- | --- | --- | --- | --- | --- | --- | --- | --- | --- | --- | --- |
| HCC-44 | 0.994 | 1 | 0.987 | 1.01 | 0.968 | 1.18 | 1.14 | 0.928 | 0.434 | 0.49 | 0.574 | 0.439 | 0.427 | 1.11 | 1.09 | 1.21 | 1.1 | 1.15 |
| EKVX | 1 | 0.865 | 0.797 | 0.689 | 0.673 | 0.677 | 0.699 | 0.373 | 0.741 | 0.693 | 0.723 | 0.67 | 0.563 | 0.727 | 0.697 | 0.732 | 0.776 | 0.382 |
| NCI-H23 | – | 0.33 | 0.276 | 0.303 | 0.282 | 0.844 | 0.463 | 0.362 | 0.513 | 0.559 | 0.573 | 0.613 | 0.746 | 0.55 | 0.585 | 0.517 | 0.608 | 0.598 |
| NCI-H2347 | 0.607 | 0.611 | 0.627 | 0.642 | 0.525 | 0.538 | 0.588 | 0.44 | 0.518 | – | 0.386 | 0.492 | 0.361 | 0.643 | 0.387 | 0.575 | 0.678 | 0.574 |
| SK-LU-1 | 0.404 | 0.454 | 0.481 | 0.513 | 0.483 | – | 0.822 | 0.487 | 0.332 | 0.199 | 0.37 | 0.348 | 0.301 | 0.879 | 0.494 | 0.798 | 0.918 | 0.767 |
| A549 | 0.488 | 0.236 | 0.321 | 0.409 | 0.232 | – | – | – | – | – | – | – | – | – | – | – | – | – |
| LU99A | 0.247 | 0.272 | – | 0.265 | 0.232 | 0.51 | 0.465 | 0.357 | 0.267 | 0.314 | 0.267 | 0.264 | 0.317 | 0.474 | 0.377 | 0.499 | 0.49 | 0.528 |
| NCI-H596 | 0.599 | 0.59 | 0.608 | 0.632 | 0.643 | 0.565 | 0.578 | 0.647 | 0.751 | 0.674 | 0.665 | 0.726 | 0.74 | 1.37 | 0.562 | 0.657 | 0.666 | 0.693 |
| A-427 | 0.699 | 0.694 | 0.698 | 0.856 | 0.718 | 0.908 | 0.848 | 0.738 | 0.542 | 0.486 | 0.53 | 0.481 | 0.432 | 0.809 | 0.85 | 0.903 | 0.842 | 0.911 |
| SW 900 | 0.65 | 0.755 | 0.838 | 0.938 | 0.87 | 0.686 | 0.46 | 0.687 | 0.456 | 0.486 | 0.315 | 0.622 | 0.713 | 0.692 | 0.528 | – | 0.425 | 0.429 |
| COR-L 105 | 0.544 | 0.602 | 0.602 | 0.578 | 0.551 | – | 0.78 | 0.509 | 0.629 | 0.641 | 0.507 | 0.411 | 0.329 | 0.922 | 0.807 | 0.829 | 0.822 | 0.537 |
| LOU-NH91 | 0.914 | 0.914 | 0.826 | 0.888 | 0.801 | 0.817 | 0.8 | 0.628 | 0.76 | 0.604 | 0.599 | 0.502 | 0.515 | 0.942 | 0.806 | 0.559 | 0.883 | 0.886 |
| COR-L23 | 0.318 | 0.327 | 0.355 | 0.373 | 0.306 | 0.413 | 0.397 | 0.101 | 0.731 | 0.671 | 0.736 | 0.684 | 0.789 | 0.427 | 0.406 | 0.463 | 0.451 | 0.516 |
| HCC-15 | 0.663 | 0.727 | 0.662 | 0.837 | 0.686 | 0.841 | 0.855 | 0.521 | 0.75 | 0.638 | 0.668 | 0.682 | 0.537 | 0.832 | 0.796 | 0.782 | 0.89 | 0.816 |
| LCLC-103H | 0.628 | 0.829 | 0.764 | 0.849 | 0.649 | 0.725 | 0.759 | 0.653 | 0.428 | 0.44 | 0.438 | 0.423 | 0.448 | 0.756 | 0.759 | 0.822 | 0.755 | 0.814 |
| HARA | 0.773 | 0.659 | 0.942 | 0.822 | 0.954 | 0.525 | 0.464 | 0.23 | 0.542 | 0.299 | 0.466 | 0.525 | 0.483 | 0.496 | 0.477 | 0.521 | 0.616 | 0.524 |
| BEN | 0.976 | 1.21 | 1.03 | 1.05 | 0.853 | 0.547 | 0.524 | 0.419 | 0.247 | 0.302 | 0.292 | 0.285 | 0.282 | 0.6 | 0.56 | 0.613 | 0.552 | 0.569 |
| LC-2-ad | 0.699 | 0.701 | 0.762 | 0.729 | 0.673 | 0.725 | 0.665 | 0.251 | 0.848 | 0.761 | 0.777 | 0.675 | 0.446 | 0.686 | 0.673 | 0.714 | 0.709 | 0.462 |
| NCI-H1299 | 0.966 | 1.05 | 1.01 | 1.05 | 0.894 | – | – | – | – | – | – | – | – | – | – | – | – | – |
